This note sets out measurements from patent publication US20240331158A1, “CELL PAINTING AND ANALYSIS IN 3D CELLULAR MODELS” (priority 2023, published 2024).

Where a name gives a salt, the structure may show the parent alone. Read-outs that look alike come from different tables or passages of the source. *1 amine or outer side, *2 acyl side, *3 side chain or, on linkers, in order; H or OH if unused. Where a SMILES comes first, the peptide text is derived from it. Bridges are numbered along the chain shown (N, C = ends). Roman numbers before positions name the chains, in order. [ ]: non-standard residue; d: D form. Actinocin(9to1) = Cc1c2oc3c(C)ccc(C(=O)[*:1])c3nc-2c(C(=O)[*:2])c(N)c1=O; NMeV = CN[C@H](C(=O)O)C(C)C; Sar = CNCC(=O)O A value given as a limit tells only on which side of the number the result lay.

Usually EC50 stands for the concentration at which the effect is half-maximal.

Assay [1] relates to TU-BcX-4IC tumoroids. Description: Cell Painting assay adapted for 3D tumoroids, phenotypic distance score and cluster analysis. The following applies: 10 μM, phenotypic distance relative to DMSO controls.
Experimental: For phenotypic profiling, the tumoroids were treated with a single 10 μM concentration of compound, using the methods described above. Notable changes in the staining protocol included increased times for dye incubation, fixation, and permeabilization. […] Images were acquired with Z-stacks using 20× magnification, and the analysis was carried out on projection (maximum) images.
Unlike the previous analysis that included cell count or live-dead evaluation, multiple read-outs may be collected from the whole spheroid to form their phenotypic profile. […] Instead, the spheroid images may also acquired in transmitted light (bright field), and these images may be used to identify the spheroid structures using a deep learning-based image segmentation approach which may improve the analysis. Features extracted from each spheroid may include object morphologies, intensities, and texture measurements for, e.g., the six cell stains and bright field images.
To determine hits from the assay, a phenotypic distance score may be calculated based on the PCA (principal component analysis) components.
This score is a measure of the phenotypic effect of the compounds on the tumoroids relative to the controls. All hits may then be clustered based on their phenotypic profiles using the normalized principal component scores.
To image the organoids labeled with the cell painting dyes, the ImageXpress Confocal HT.ai system, equipped with a laser light source, was used for image acquisition. The confocal mode (pinhole size 60 μm) was used to image organoids with a 20× Plan Apo Lambda, NA 0.75 objective, with z-stacking enabled (5p m step size). The maximum projection image was selected in the acquisition setup.
Images were analyzed using MetaXpress Software (Molecular Devices). […] For the Cell Painting analysis, image analysis was done in the IN Carta image analysis software. To segment the organoids, a deep learning-based model was created based on the TL channel to segment individual organoids. Following segmentation, measurements that include intensity, shape, area, and texture were extracted from all 6 fluorescent channels. In total, 210 analytical features were obtained from each organoid.
The plate was first incubated with MitoTracker DeepRed (500 nM) for 2 hours. The samples were fixed with 4% paraformaldehyde (PFA) in HBSS for 60 minutes. All wash steps were carried out by exchanging half the volume in each well with HBSS to minimize displacement of the organoids from the center of the well.
Measurements from IN Carta were exported as a CSV file and uploaded into StratoMineR (Core Life Analytica), a web-based data analytics platform for hit picking and phenotypic clustering.
Assay [2] concerns TU-BcX-4IC tumoroids. Description: Library screening of NCI approved anti-cancer drugs: tumoroid integrity/disintegration by nuclear count in projection images (viability/spheroid disintegration assay). The following applies: for Viability HIT?: also hit in viability/spheroid disintegration assay, 10 μM; for minimal effective concentration: Homo sapiens, TU-BcX-4IC, 120 h.
Experimental: In addition, positive and negative controls were included in the test plates.
During incubation with compounds, tumoroids were monitored daily using TL imaging. Image analysis allowed characterization of tumoroid size, diameter, compactness, and integrity, as well as optical density (FIG. 2B, FIG. 7). Images of tumoroids were taken prior to compound treatment, and during day 3 and day 5 of compound treatment. For the end point assay, tumoroids were stained with viability and nuclear dyes on day 5 of compound treatment. Cells were stained with a combination of Hoechst, calcein AM, and Ethidium Homodimer III (EthD-III) and analyzed using high content imaging for complex phenotypic analysis; a subset of plates was set aside for additional assays including Cell Painting.
Images of organoids were taken with a 10× objective using Z-stack with a step size of 8 mm. Nuclei, live cells, and dead cells of stained cells were detected using DAPI, FITC, and TexasRed channels respectively. Maximum projection images were created from Z-stacks and analyzed as described in Methods. Multiple read-outs were generated characterizing spheroid area, diameter, intensities, and cell viability. In addition, cells inside each spheroid were counted using a nuclear stain. […] Suspended cells were plated into U-shape 384 well plates using a Biomek i7 automated liquid handler, incubated for 48 hours, and then treated with compounds, stained, and imaged. The protocols for compound additions, media, and staining included gentle media dispensing processes. Consecutively, tumoroids were cultured and monitored by automated imaging. Additionally, use of a collaborative robot enabled moving plates from the incubator to the imaging system, where transmitted light imaging or fluorescent imaging protocols were initiated.
For screening the compound library, maximum projection images may be employed. Spheroid disintegration is visible as an increase of spheroid size, in contrast to nicely shaped, round images of intact spheroids. Tumoroid disintegration can be described by several measurements: for example, increase in organoid area/diameter. Most accurate measurements may be done by counting cells or nuclei inside organoids using maximum projection images. […] Disintegrated tumoroids are made up of cells which are not held together in a tight aggregate but instead are loosely piled up in the well bottom resulting in 1) an increased projected area and 2) an increase in nuclear count in the projection images.
Simple nuclei count analysis in projection images was used as a reliable surrogate marker for organoid integrity/dis-integration.
Assay [3] has as its system TU-BcX-4IC tumoroids. Nature of the assay: Secondary follow-up 3D assay, 7-point concentration curves, tumoroid disintegration measurement. The format is cell-based, human. The following applies: 3D assay, 7-point concentration curves, 5 days, nuclear count in projection images. The protocol: 10 compounds, including panobinostat, carfilzomib, and bortezomib were tested across 7 concentrations in the 1-10000 nM range. Spheroids were treated for 5 days with these compounds, then stained as described above (FIG. 4). […] EC50 values (Table 2) were determined using tumoroid disintegration measurement (nuclear count in projection images).
Automated staining of spheroids was performed for one hour. After staining, dye solution was replaced with 1×PBS.

In assay [4] the test system is TU-BcX-4IC 3D cultures. Description: Imaging read-out, 3D culture. The following applies: Homo sapiens, 120 h, read-out: EC50, Imaging 3D.
Experimental: (§1) Cell metabolism may be measured by ATP level as another readout for effects of anti-cancer drugs that is related to cytotoxicity. In the present examples, a subset of 12 compounds were used for evaluation of compound effects, using the CellTiter-Glo 3D assay (Promega), which detects ATP levels. Compounds may be tested using 7 point 5× dilutions starting from 100 uM. In the present examples, compound effects on 2D culture and 3D cultures were compared, using imaging and CellTiter-Glo 3D methods. Cultures were set up in parallel, using same cell number (2000). Cultures were allowed to grow for 48 hours, then treated with compounds for 5 days.
(§2) Images were analyzed using MetaXpress Software (Molecular Devices). Count Nuclei or Cell Scoring application modules were used for nuclear count live/dead assessment, or evaluation of cell number positive for specific markers. Output measurements included spheroid width, spheroid area, average intensity for calcein AM or EthD-III, counts of all nuclei, and evaluation of average nuclear size and average intensities. In addition, calcein AM-positive cells were counted, and their area and intensity values were recorded. In addition to cell count, areas and intensities could be determined for live (EthD-III negative) and dead (EthD-III positive) cells.
Assay [5] relates to TU-BcX-4IC 2D culture. Description: CellTiter-Glo 3D ATP assay, 2D culture. The following applies: Homo sapiens, TU-BcX-4IC, 120 h, read-out: EC50, ATP 2D. (In ATP-based viability assays light output follows the ATP content of the culture.)
Experimental: (§3) Cell metabolism may be measured by ATP level as another readout for effects of anti-cancer drugs that is related to cytotoxicity. […] Compounds may be tested using 7 point 5× dilutions starting from 100 uM. In the present examples, compound effects on 2D culture and 3D cultures were compared, using imaging and CellTiter-Glo 3D methods. Cultures were set up in parallel, using same cell number (2000). Cultures were allowed to grow for 48 hours, then treated with compounds for 5 days.
For assay [6], the system named is TU-BcX-4IC 3D cultures. Nature of the assay: CellTiter-Glo 3D ATP assay, 3D culture. The following applies: Homo sapiens, TU-BcX-4IC, 120 h, read-out: EC50, ATP 3D.
Experimental: as §3
The test system of assay [7] is TU-BcX-4IC 2D culture. Description: Imaging read-out, 2D culture. The following applies: Homo sapiens, 120 h, read-out: EC50, Imaging 2D.
Experimental: as §1, §2
The mark [8] stands for this setting: read-out: Effective concentration, 3D tumoroids, 5 days treatment, tumoroid integrity by nuclear count, tested at 10 nM to 100 uM.
[9] abbreviates: Homo sapiens, TU-BcX-4IC, 120 h, read-out: EC50.
Where [10] appears, read: read-out: Effective concentration.

For `CCN1CCN(Cc2ccc(Nc3ncc(F)c(-c4cc(F)c5nc(C)n(C(C)C)c5c4)n3)nc2)CC1` [Abemaciclib], the “Distance Score” value in assay [1] is 5.819.

Regarding `CN(C)C/C=C/C(=O)Nc1cc2c(Nc3ccc(F)c(Cl)c3)ncnc2cc1O[C@H]1CCOC1` [Afatinib], the “Distance Score” value in assay [1] is given as 5.047.

With `Cc1nc(NC(=O)N2CCC[C@H]2C(N)=O)sc1-c1ccnc(C(C)(C)C(F)(F)F)c1` [Alpelisib], the “Distance Score” value in assay [1] worked out at 5.834. The “Viability HIT?” value in assay [2] is on record as “yes”.

On to `Cn1cc(-c2cc3c(N4CCN(c5ncc([C@@](C)(N)c6ccc(F)cc6)cn5)CC4)ncnn3c2)cn1` [Avapritinib], for which the “Distance Score” value in assay [1] was found to be 5.386. Also, the “Viability HIT?” value in assay [2] is “no”.

Regarding `O=C(/C=C/c1cccc(S(=O)(=O)Nc2ccccc2)c1)NO` [Belinostat], the “Distance Score” value in assay [1] is 5.348. Moreover, in assay [2] (setting [8]), the minimal effective concentration was 0.1 µM. For the same compound, in assay [2], the “Viability HIT?” value was “yes”.

For the compound `COc1cc(Nc2c(C#N)cnc3cc(OCCCN4CCN(C)CC4)c(OC)cc23)c(Cl)cc1Cl` [Bosutinib], the minimal effective concentration in assay [2] (setting [8]) amounted to 0.1 µM.

As for `COc1cc(N2CCC(N3CCN(C)CC3)CC2)ccc1Nc1ncc(Cl)c(Nc2ccccc2P(C)(C)=O)n1` [Brigatinib], the “Distance Score” value in assay [1] is recorded as 5.771. For the same compound, in assay [2] (setting [8]), the minimal effective concentration came out at 1 µM.

As for `Cc1ccc(-c2cc(C(F)(F)F)nn2-c2ccc(S(N)(=O)=O)cc2)cc1` [Celecoxib], in assay [3], the EC50 entry is recorded as “no effect”.

In the case of `C[C@@H](Oc1cc(-c2cnn(C3CCNCC3)c2)cnc1N)c1c(Cl)ccc(F)c1Cl` [Crizotinib], the 50% effective concentration (EC50) in assay [3] (setting [9]) was over 1000 nM.

Turning to `Cc1c2oc3c(C)ccc(C(=O)N[C@@H]4C(=O)N[C@H](C(C)C)C(=O)N5CCC[C@H]5C(=O)N(C)CC(=O)N(C)[C@@H](C(C)C)C(=O)O[C@@H]4C)c3nc-2c(C(=O)N[C@@H]2C(=O)N[C@H](C(C)C)C(=O)N3CCC[C@H]3C(=O)N(C)CC(=O)N(C)[C@@H](C(C)C)C(=O)O[C@@H]2C)c(N)c1=O` [Dactinomycin] (I: T[dV]P[Sar][NMeV] / II: T[dV]P[Sar][NMeV]; ester I:1-I:C, II:1-II:C; linker I:N-II:N via Actinocin(9to1)), the EC50 in assay [4] was 33 nM; in assay [5] it was under 10 nM; in assay [6], 5 nM; in assay [7], under 10 nM. For the same compound, in assay [2] (library screen, tumoroid integrity by nuclear count), the “Efficacy at low concentrations” value is “efficacy at low concentrations”.

Consider `Cc1nc(Nc2ncc(C(=O)Nc3c(C)cccc3Cl)s2)cc(N2CCN(CCO)CC2)n1` [Dasatinib], for which the minimal effective concentration in assay [2] (setting [8]) came out at 0.1 µM.

Take `COC(=O)N[C@@H](C)CNc1nccc(-c2cn(C(C)C)nc2-c2cc(Cl)cc(NS(C)(=O)=O)c2F)n1` [Encorafenib]: the “Distance Score” value in assay [1] came out at 5.516. Further, the “Viability HIT?” value in assay [2] is reported as “no”.

On to `CN1CCN(c2ccc(C(=O)Nc3n[nH]c4ccc(Cc5cc(F)cc(F)c5)cc34)c(NC3CCOCC3)c2)CC1` [Entrectinib], for which the “Distance Score” value in assay [1] turned out to be 4.843. Further, the “Viability HIT?” value in assay [2] is recorded as “yes”.

`COc1cccc2c1C(=O)c1c(O)c3c(c(O)c1C2=O)C[C@@](O)(C(=O)CO)C[C@@H]3O[C@H]1C[C@H](N)[C@@H](O)[C@H](C)O1` [Epirubicin hydrochloride]: the “Distance Score” value in assay [1] is 5.883. The minimal effective concentration in assay [2] (setting [8]) came to 1 µM.

For the compound `Cc1cnc(Nc2ccc(OCCN3CCCC3)cc2)nc1Nc1cccc(S(=O)(=O)NC(C)(C)C)c1` [Fedratinib], the minimal effective concentration in assay [2] (setting [8]) was 1 µM.

For `C[C@]12CC[C@@H]3c4ccc(O)cc4C[C@@H](CCCCCCCCC[S+]([O-])CCCC(F)(F)C(F)(F)F)[C@H]3[C@@H]1CC[C@@H]2O` (stereo partly drawn) [Fulvestrant], the minimal effective concentration in assay [2] (setting [8]) stood at 0.01 µM.

With `CCc1nc(C(N)=O)c(Nc2ccc(N3CCC(N4CCN(C)CC4)CC3)c(OC)c2)nc1NC1CCOCC1` [Gilteritinib], the “Distance Score” value in assay [1] was 5.239. Moreover, in assay [2] (setting [8]), the minimal effective concentration was determined as 1 µM.

Consider `C=CC(=O)N1CCC[C@@H](n2nc(-c3ccc(Oc4ccccc4)cc3)c3c(N)ncnc32)C1` [Ibrutinib], for which the EC50 in assay [4] was about 20000 nM; in assay [5], 25000 nM; in assay [6] it was 15800 nM; in assay [7], 20200 nM.

As to `CC(=O)[C@]1(O)Cc2c(O)c3c(c(O)c2[C@@H](O[C@H]2C[C@H](N)[C@H](O)[C@H](C)O2)C1)C(=O)c1ccccc1C3=O` [Idarubicin hydrochloride], the half-maximal effective concentration (EC50) in assay [4] was 3930 nM; in assay [5] it was 67 nM; in assay [6], 145 nM; in assay [7], about 1000 nM. For the same compound, the minimal effective concentration in assay [2] (setting [8]) came out at 1 µM.

`CC(C)C[C@H](NC(=O)CNC(=O)c1cc(Cl)ccc1Cl)B1OC(=O)C(CC(=O)O)(CC(=O)O)O1` [Ixazomib citrate]: the minimal effective concentration in assay [2] (setting [8]) was found to be 0.1 µM.

As to `O=C(Nc1cnn2ccc(N3CCC[C@@H]3c3cc(F)ccc3F)nc12)N1CC[C@H](O)C1` [Larotrectinib], in assay [1], the “Distance Score” value came out at 5.667. Also, in assay [2], the “Viability HIT?” value is reported as “no”.

On to `CO[C@@]12[C@H](COC(N)=O)C3=C(C(=O)C(C)=C(N)C3=O)N1C[C@@H]1N[C@@H]12` [Mitomycin], for which the minimal effective concentration in assay [2] (setting [8]) amounted to 1 µM.

`Clc1ccc(C(c2ccccc2Cl)C(Cl)Cl)cc1` (stereo not drawn) [Mitotane]: the minimal effective concentration in assay [2] (setting [8]) is 0.1 µM.

In assay [2] (3D tumoroids, 5 days treatment, tumoroid integrity by nuclear count, tested at 10 nM to 100 uM), `COC(=O)C[C@](O)(CCCC(C)(C)O)C(=O)O[C@@H]1C(OC)=C[C@]23CCCN2CCc2cc4c(cc2[C@H]13)OCO4` [Omacetaxine] returned an Effective concentration of 1 µM. For the same compound, in assay [3] (read-out: EC50), the EC50 was under 100 nM.

Turning to `C=CC(=O)Nc1cc(Nc2nccc(-c3cn(C)c4ccccc34)n2)c(OC)cc1N(C)CCN(C)C` [Osimertinib], the “Distance Score” value in assay [1] came to 5.241. The “Viability HIT?” value in assay [2] is listed as “yes”.

Take `CC(=O)O[C@H]1C(=O)[C@@]2(C)[C@H]([C@H](OC(=O)c3ccccc3)[C@]3(O)C[C@H](OC(=O)[C@H](O)[C@@H](NC(=O)c4ccccc4)c4ccccc4)C(C)=C1C3(C)C)[C@]1(OC(C)=O)CO[C@@H]1C[C@@H]2O` [Paclitaxel]: the minimal effective concentration in assay [2] (setting [8]) came out at 1 µM. Besides, the EC50 in assay [3] (setting [9]) was 2900 nM.

`Cc1ccc(C(=O)Nc2ccc(CN3CCN(C)CC3)c(C(F)(F)F)c2)cc1C#Cc1cnc2cccnn12` [Ponatinib]: the minimal effective concentration in assay [2] (setting [10]) was 0.1 µM.

As for `CNC(=O)c1cc(Oc2ccc(NC(=O)Nc3ccc(Cl)c(C(F)(F)F)c3)c(F)c2)ccn1` [Regorafenib], the minimal effective concentration in assay [2] (setting [8]) was determined as 0.1 µM.

Take `O=C(/C=C\n1cnc(-c2cc(C(F)(F)F)cc(C(F)(F)F)c2)n1)NNc1cnccn1` [Selinexor]: the “Distance Score” value in assay [1] is 5.004. For the same compound, the “Viability HIT?” value in assay [2] is “no”.

Regarding `CCN(CC)CCNC(=O)c1c(C)[nH]c(/C=C2\C(=O)Nc3ccc(F)cc32)c1C` [Sunitinib], the 50% effective concentration (EC50) in assay [3] (setting [9]) worked out at 1700 nM.

As to `Oc1ncc(N(CCCl)CCCl)c(O)n1` [Uracil mustard], in assay [2] (setting [10]), the minimal effective concentration stood at 1 µM.

Consider `CCCCC(=O)OCC(=O)[C@]1(O)Cc2c(O)c3c(c(O)c2[C@@H](O[C@H]2C[C@H](NC(=O)C(F)(F)F)[C@H](O)[C@H](C)O2)C1)C(=O)c1c(OC)cccc1C3=O` [Valrubicin], for which the “Distance Score” value in assay [1] is given as 8.136. Further, in assay [2], the “Viability HIT?” value is given as “yes”.

As to `COc1cc2c(Nc3ccc(Br)cc3F)ncnc2cc1OCC1CCN(C)CC1` [Vandetanib], the “Distance Score” value in assay [1] was 5.185. Further, the minimal effective concentration in assay [2] (setting [8]) was 1 µM.

As to `CC1(C)CCC(CN2CCN(c3ccc(C(=O)NS(=O)(=O)c4ccc(NCC5CCOCC5)c([N+](=O)[O-])c4)c(Oc4cnc5[nH]ccc5c4)c3)CC2)=C(c2ccc(Cl)cc2)C1` [Venetoclax], in assay [1], the “Distance Score” value is recorded as 4.922. Besides, the minimal effective concentration in assay [2] (setting [8]) came to 1 µM.

On to `CC[C@]1(O)C[C@@H]2CN(CCc3c([nH]c4ccccc34)[C@@](C(=O)OC)(c3cc4c(cc3OC)N(C)[C@H]3[C@@](O)(C(=O)OC)[C@H](OC(C)=O)[C@]5(CC)C=CCN6CC[C@]43[C@@H]65)C2)C1` [Vinblastine sulfate], for which the minimal effective concentration in assay [2] (setting [8]) stood at 0.1 µM.

For the compound `CC[C@]1(O)C[C@H]2CN(CCc3c([nH]c4ccccc34)[C@@](C(=O)OC)(c3cc4c(cc3OC)N(C=O)[C@H]3[C@@](O)(C(=O)OC)[C@H](OC(C)=O)[C@]5(CC)C=CCN6CC[C@]43[C@@H]65)C2)C1` [Vincristine sulfate], the minimal effective concentration in assay [2] (setting [8]) was determined as 0.1 µM.

For the compound `O=C(CCCCCCC(=O)Nc1ccccc1)NO` [Vorinostat], the “Distance Score” value in assay [1] was found to be 5.079. Also, the minimal effective concentration in assay [2] (setting [8]) is 1 µM. For the same compound, the “Viability HIT?” value in assay [2] is reported as “no”.

Consider Dabrafenib mesylate, for which the “Distance Score” value in assay [1] was 6.249. For the same compound, the “Viability HIT?” value in assay [2] is recorded as “yes”.
